Reference: patent US20080112915A1, “Dna Delivery with Gemini Cationic Surfactants” (priority 2003, published 2008)

Experiments:
[1] = system: PAM212 cells; test: Transfection of PAM212 cells with pGTmCMV.IFN-GFP plasmid using gemini cationic surfactants and DOPE; IFNγ by ELISA; type: cell-based, murine; conditions: for IFN-γ expression: PAM212 cells, pGTmCMV.IFN-GFP, plasmid-gemini surfactant charge ratio 1:10 in 1 mM DOPE vesicles; for transfection efficiency (in words): dependence on spacer length, charge ratio 1:10, DOPE; for IFNγ levels versus the other compounds with longer linkers: p<0.001
Description: The pGTmCMV.IFN-GFP plasmid was used at a concentration of 0.2 μg/well for transfection. Eight gemini surfactants were tested in this study (FIG. 1) (Wettig et al., 2001). Aqueous solutions (1.5 mM) of the gemini cationic surfactants were prepared and filtered through 0.2 μm Acrodisc® filters (Pall Gelman, Ann Arbor, Mich.). Lipid vesicles were prepared by using sonication techniques. 1,2 dioleyl-sn-glycero-phosphatidylethanolamine (DOPE) (Avanti Polar Lipids, Alabaster, Ala.) and α-tocopherol (Spectrum, Gardena Calif.) in 1:0.2 weight ratios were dissolved in 100% ethanol (Commercial Alcohols Inc., Brampton, ON) at a concentration of 10 mg lipid/mL in a round bottom flask. The solvent was evaporated in a rotary evaporator (Rotavapor RE111 BÜCHI Laboratoriums-Technik AG, Switzerland) at 100 rpm and 55° C. to deposit a thin film on the walls of the vessel. To remove traces of organic solvent, the lipid was lyophilized overnight. Glass beads were added to the flask and the lipid was resuspended at 1 μmol/mL concentration in 9.25% w/v isotonic sucrose (Spectrum, Gardena, Calif.) solution (pH 9). The suspensions were bath-sonicated (Branson 2200, Cleansonic Orange, Va.) for 3 hours at 55° C., followed by filtration through 0.45 μm Acrodisc® filters. PAM 212 murine keratinocyte cells were prepared for transfection as described earlier.
The transfection mixtures were prepared as follows: 0.2 μg of plasmid was mixed with aliquots of gemini surfactant solution to obtain plasmid DNA:gemini surfactant charge ratios of 1:5, 1:10, 1:20 or 1:40 and incubated at room temperature for 15 minutes. To this mixture, 25 μL of DOPE liposomes were added. The transfection mixtures were incubated for 30 minutes at room temperature prior to transfection and added to the cells, dropwise. The plates were incubated for periods of 5 or 6-24 hours at 37° C. in a CO2 incubator. The transfection mix was replaced with supplemented MEM and the plates further incubated for 24 hours. The supernatants were collected and stored at −20° C. As a positive control, the cells were transfected with Lipofectamine Plus™ Reagent, as described above.
ELISAs were performed using round bottom 96-well plates (Immulon II, Dynatech Laboratories, Chantilly, Va.). The plates were coated with 50 μL/well of capture antibody, rat anti-mouse IFNγ (Pharmingen, Mississauga, ON) 2 μg/mL coating buffer and incubated for 24 hours at 4° C. The wells were blocked with 1% bovine serum albumin (BSA) (New England Biolabs, Mississauga, ON) solution in PBS at room temperature for one hour. IFNγ standard (Pharmingen) of 250-2000 pg/mL concentration and was used in 1% BSA solution on plates. Protein resuspension buffer was used as a blank control. The supernatants from cell cultures and the skin and lymph homogenates, as well as the serum from mice, were diluted one in four on the plates and incubated overnight at 4° C. Biotinylated rat anti mouse IFNγ (Pharmingen) was added at […] concentration in 1% BSA solution. The plates were incubated for a further 2 h at room temperature. The streptavidin-alkaline phosphatase conjugate (Jackson Immuno Research Laboratories, Inc., West Grove, Pa.) was added in 1:5000 dilution and incubated for 1 h at room temperature, followed by addition of 4-nitrophenyl phosphate di(tris) salt 1 mg/mL in PNPP buffer (1% diethanolamine, 0.5 mM MgCl2, pH 9.8) (Sigma). Optical density of the samples was measured at 405 nm using a Benchmark Microplate Reader (BioRad, Mississauga, ON). The concentration of the IFNγ vas calculated from the standard IFNγ curve, using recombinant murine IFNγ (Pharmingen).

[2] = cited from earlier work; for distance between the cationic head groups: estimated, Chen et al.; for distance between the cationic head groups / Krafft point: 2002; for Γ × 10^6 (surface excess concentration): from Alami et al., 1993; for CMC (critical micellar concentration) / a (head group areas based on activity) / α (degree of micelle ionization): from Wettig et al., 2001; for Krafft point: from Zana
[3] = system: PAM212 cells; test: FACS of transfected PAM212 cells: GFP fluorescent cells and cell viability; type: cell-based, murine
Description: PAM212 cells were seeded on 6-well plates (Costar, Corning N.Y.) at a density of 1×10^6 cells/well density and grown to 60-80% confluency. The supplemented MEM was changed to MEM one hour prior to transfection. The transfection mixes were prepared with 1 μg pGTmCMV.IFN-GFP, using the 16-3-16 gemini cationic surfactant and DOPE liposomes at plasmid DNA:gemini cationic surfactant charge ratio of 1:5, 1:10, 1:20 or 1:40, as described earlier, keeping the concentration of the reagents constant. The cells were detached using Versene solution containing 0.05% trypsin (Sigma), pelleted at 4° C. and 1000 g for 5 minutes, washed twice with PBS and resuspended in Fa-cola (10 mM PBS pH 7.2, 0.2% gelatin, 0.03% sodium azide). Triplicate samples were pooled. The cell sorter was calibrated with non-transfected cells and 10^4 cells of each sample were counted.
The formulations were optimized for plasmid DNA:gemini surfactant charge ratio correlated with cell toxicity using the 16-3-16 compound. The optimal plasmid DNA:gemini surfactant charge ratio was determined by comparing the percentage of fluorescent cells (FIG. 5A) with cell viability (FIG. 5B). The cells were transfected with either transfection mixtures of the 16-3-16 gemini surfactant and DOPE at plasmid DNA:gemini surfactant charge ratio of 1:5, 1:10, 1:20 or 1:40, or Lipofectamine Plus™ Reagent (L), using 0.2 μg pGTmCMV.IFN-GFP, and compared to non-transfected cells (NT). Triplicate samples were pooled and 1×10^4 cells counted. […] At plasmid DNA:gemini surfactant charge ratio of 1:40 the transfection efficiency was 3.13%, however, cell viability fell to 20%. […] No fluorescence was detected in the non-transfected cells.

[4] = plasmid DNA:gemini surfactant charge ratio 1:40, with DOPE
[5] = plasmid:gemini surfactant charge ratio 1:10, with DOPE

CCCCCCCC/C=C\CCCCCCCC(=O)OC[C@H](COP(=O)(O)OCCN)OC(=O)CCCCCCC/C=C\CCCCCCCC [DOPE, 1,2 dioleyl-sn-glycero-phosphatidylethanolamine, reference compound]
IFNγ detection after transfection with single component alone ([1]; agent alone, or plasmid without transfection agents): No IFNγ was detected

CCCCCCCCCCCC[N+](C)(C)CCC[N+](C)(C)CCCCCCCCCCCC.[Br-].[Br-] [12-3-12]
IFN-γ expression [1]: 1.11 ± 0.65 ng/5 × 10^5 cells
transfection efficiency (in words) [1]: highest activity
IFNγ levels versus the other compounds with longer linkers [1]: Significantly higher
distance between the cationic head groups [2]: 0.49 nm
Γ × 10^6 (surface excess concentration) [2]: 1.58 mol/m^2
CMC (critical micellar concentration) [2]: 0.98 ± 0.04 mM
a (head group areas based on activity) [2]: 0.98 nm^2/molecule
α (degree of micelle ionization) [2]: 0.23 ± 0.02
Krafft point [2]: 12.7 °C

CCCCCCCCCCCCCCCC[N+](C)(C)CCC[N+](C)(C)CCCCCCCCCCCCCCCC [16-3-16]
IFN-γ expression [1]: 1.63 ± 1.37 ng/5 × 10^5 cells
transfection efficiency (in words) [1]: highest activity
IFNγ levels versus the other compounds with longer linkers [1]: Significantly higher
cell viability [3, 4]: 20%
transfection efficiency (fluorescent cells) [3, 4]: 3.13%
cell viability [3, 5]: 74%
percentage of fluorescent cells [3, 5]: 2.36%
Γ × 10^6 (surface excess concentration) [2]: 1.08 mol/m^2
CMC (critical micellar concentration) [2]: 0.026 ± 0.001 mM
a (head group areas based on activity) [2]: 1.02 nm^2/molecule
α (degree of micelle ionization) [2]: 0.35 ± 0.02
Krafft point [2]: 42 °C

CCCCCCCCCCCC[N+](C)(C)CCCCCCCCCC[N+](C)(C)CCCCCCCCCCCC.[Br-].[Br-] [12-10-12]
IFN-γ expression [1]: 0.29 ± 0.10 ng/5 × 10^5 cells
Γ × 10^6 (surface excess concentration) [2]: 0.75 mol/m^2
CMC (critical micellar concentration) [2]: 0.62 ± 0.03 mM
a (head group areas based on activity) [2]: 2.16 nm^2/molecule
α (degree of micelle ionization) [2]: 0.51 ± 0.06
Krafft point [2]: <0 °C

CCCCCCCCCCCC[N+](C)(C)CCCCCCCCCCCC[N+](C)(C)CCCCCCCCCCCC [12-12-12]
IFN-γ expression [1]: 0.33 ± 0.16 ng/5 × 10^5 cells
Γ × 10^6 (surface excess concentration) [2]: 0.73 mol/m^2
CMC (critical micellar concentration) [2]: 0.36 ± 0.03 mM
a (head group areas based on activity) [2]: 2.14 nm^2/molecule
α (degree of micelle ionization) [2]: 0.56 ± 0.08
Krafft point [2]: 13.6 °C

CCCCCCCCCCCC[N+](C)(C)CCCCCCCC[N+](C)(C)CCCCCCCCCCCC.[Br-].[Br-] [12-8-12]
IFN-γ expression [1]: 0.24 ± 0.12 ng/5 × 10^5 cells
Γ × 10^6 (surface excess concentration) [2]: 0.94 mol/m^2
CMC (critical micellar concentration) [2]: 0.84 ± 0.03 mM
a (head group areas based on activity) [2]: 1.78 nm^2/molecule
α (degree of micelle ionization) [2]: 0.46 ± 0.04
Krafft point [2]: <0 °C

CCCCCCCCCCCC[N+](C)(C)CCCCCCCCCCCCCCCC[N+](C)(C)CCCCCCCCCCCC.[Br-].[Br-] [12-16-12]
IFN-γ expression [1]: 0.49 ± 0.19 ng/5 × 10^5 cells
Γ × 10^6 (surface excess concentration) [2]: 0.83 mol/m^2
CMC (critical micellar concentration) [2]: 0.12 ± 0.01 mM
a (head group areas based on activity) [2]: 1.44 nm^2/molecule
α (degree of micelle ionization) [2]: 0.59 ± 0.08
Krafft point [2]: 24.3 °C

CCCCCCCCCCCC[N+](C)(C)CCCCCC[N+](C)(C)CCCCCCCCCCCC.[Br-].[Br-] [12-6-12]
IFN-γ expression [1]: 0.48 ± 0.17 ng/5 × 10^5 cells
distance between the cationic head groups [2]: 0.91 nm
Γ × 10^6 (surface excess concentration) [2]: 1.16 mol/m^2
CMC (critical micellar concentration) [2]: 1.09 ± 0.04 mM
a (head group areas based on activity) [2]: 1.40 nm^2/molecule
α (degree of micelle ionization) [2]: 0.34 ± 0.02
Krafft point [2]: <0 °C

CCCCCCCCCCCC[N+](C)(C)CCCC[N+](C)(C)CCCCCCCCCCCC.[Br-].[Br-] [12-4-12]
IFN-γ expression [1]: 0.66 ± 0.32 ng/5 × 10^5 cells
IFNγ levels versus the other compounds with longer linkers [1]: Significantly higher
Γ × 10^6 (surface excess concentration) [2]: 1.43 mol/m^2
CMC (critical micellar concentration) [2]: 1.17 ± 0.04 mM
a (head group areas based on activity) [2]: 1.10 nm^2/molecule
α (degree of micelle ionization) [2]: 0.26 ± 0.02
Krafft point [2]: 10.6 °C
